This is an account of results in PMC10800023 (Human Molecular Genetics, 2023).

One may read the Cmax as the peak of the concentration-time curve. In general, AUC refers to the area under the concentration-time curve, a measure of exposure.

The nature of this series: Published PK data in patients. To be noted: in vivo, oral, human, 0.75 mg/kg, extrapolated assuming linear increase from the lower dose. From the text: ^a Conklin […] JM, Hoffman EP, Jusko WJ, Mavroudis PD, Schwartz BD, […] LJ, Smith EC, Mah JK, Guglieri M, Nevo Y, Kuntz N, McDonald CM, Tulinius M, Ryan MM, Webster R, Castro D, Finkel RS, Smith AL, Morgenroth […], Jaros M, Shale […] JM, […], Ward […], Cornish MR, Clemens PR. […] Epub 2018 Sep 13. PMID: 30219580; PMCID: PMC6218284. […] Bashar T, Apu […]. […] Dose Response. 2018 Jul 25;16(3):1559325818783932. doi: 10.1177/1559325818783932. PMID: 30083083; PMCID: PMC6073839. ^c Assumed linear increase in AUC and Cmax from 0.25 to 0.75 mg/kg. This may be an overestimate. However, there is support for linearity in Al-Habet S, Rogers HJ. Pharmacokinetics of intravenous and oral prednisolone. Br J Clin Pharmacol. 1980 Nov;10(5):503-8. doi: 10.1111/j.1365-2125.1980.tb01796.x. PMID: 7437263; PMCID: PMC1430141. ^d https://www.accessdata.fda.gov/drugsatfda_docs/nda/2017/208684,208685[…]

`C[C@]12C=CC(=O)C=C1CC[C@@H]1[C@@H]2[C@@H](O)C[C@@]2(C)[C@H]1CC[C@]2(O)C(=O)CO` [Prednisolone]: the Cmax is around 705 ng/mL. Besides, the AUC (read-out: AUC (Day 1)) is around 7070 ng·h/mL.
